Assay results from patent publication US20230035723A1, “Treatment of Pancreatic Cancer” (SynCore Biotechnology Co., Ltd., priority 2017, published 2023).
Where a name gives a salt, the structure may show the parent alone. Read-outs that look alike come from different tables or passages of the source.

How the values were obtained:
PAXF 546 = test: Cell lines exhibiting drug resistance (IC50); format: cell-based
PAXF PANC-1 = test: Cell lines exhibiting drug resistance (IC50); format: cell-based
PAXF 2035 = test: Cell lines exhibiting drug resistance (IC50); format: cell-based
PAXF 1998 = test: Cell lines exhibiting drug resistance (IC50); format: cell-based
PAXF 2059 = test: Cell lines exhibiting drug resistance (IC50); format: cell-based
PAXF 1986 = test: Cell lines exhibiting drug resistance (IC50); format: cell-based
PAXF 2005 = test: Cell lines exhibiting drug resistance (IC50); format: cell-based
pancreatic cancer [1] = conditions: pancreatic cancer patients; P=0.002; cited from earlier work
PAXF HPAC = test: Cell lines exhibiting drug resistance (IC50); format: cell-based
PAXF CAPAN-2 = test: Cell lines exhibiting drug resistance (IC50); format: cell-based
[2] = test system: metastatic pancreatic cancer; conditions: first-line therapy; cited from earlier work
[3] = test system: metastatic pancreatic cancer; conditions: first-line therapy of metastatic pancreatic cancer; cited from earlier work
pancreatic cancer [4] = conditions: phase III study, pancreatic cancer patients; cited from earlier work
[5] = test system: unresectable pancreatic cancer; conditions: phase III study; cited from earlier work

Row | Molecule | IC50 (PAXF 546; Homo sapiens, PAXF546) [nM] | IC50 (PAXF PANC-1; Homo sapiens) [nM] | IC50 (PAXF 2035) [nM] | IC50 (PAXF 1998) [nM] | IC50 (PAXF 1986) [nM] | IC50 (PAXF 546) [nM] | IC50 (PAXF PANC-1) [nM] | other results
1 | COc1cc([C@@H]2c3cc4c(cc3[C@@H](O[C@@H]3O[C@@H]5CO[C@@H](C)O[C@H]5[C@H](O)[C@H]3O)[C@H]3COC(=O)[C@H]23)OCO4)cc(OC)c1O [Etoposide] | 7400 | 1500 | – | – | – | – | – | –
2 | CC(=O)O[C@@]12CO[C@@H]1C[C@H](O)[C@@]1(C)C(=O)[C@H](O)C3=C(C)[C@@H](OC(=O)[C@H](O)[C@@H](NC(=O)OC(C)(C)C)c4ccccc4)C[C@@](O)([C@@H](OC(=O)c4ccccc4)[C@H]21)C3(C)C [Docetaxel] | 104 | – | 4 | 15 | 6 | – | – | IC50 (PAXF 2059): 100 nM; IC50 (PAXF 2005): 0.1 µM
3 | CC[C@@]1(O)C(=O)OCc2c1cc1n(c2=O)Cc2cc3c(CN(C)C)c(O)ccc3nc2-1 [Topotecan HCl] | 80 | 42 | – | – | – | – | – | –
4 | O=NN(CCCl)C(=O)NC1CCCCC1 [Lomustine] | 142000 | 43600 | – | – | – | – | – | –
5 | CO[C@@]12[C@H](COC(N)=O)C3=C(C(=O)C(C)=C(N)C3=O)N1C[C@@H]1N[C@@H]12 [Mitomycin C] | – | – | 678 | 987 | 188 | 465 | 1120 | IC50 (PAXF 2005; PAXF 2005): 0.276 µM
6 | O=c1[nH]cc(F)c(=O)[nH]1 [5-Fluorouracil] | 1250 | 3230 | 105000 | 7480 | 2250 | – | – | median overall survival (pancreatic cancer [1]): 4.4 months; IC50 (PAXF 2005): 10.3 µM
7 | CC[C@]1(O)C[C@@H]2CN(CCc3c([nH]c4ccccc34)[C@@](C(=O)OC)(c3cc4c(cc3OC)N(C)[C@H]3[C@@](O)(C(N)=O)[C@H](O)[C@]5(CC)C=CCN6CC[C@]43[C@@H]65)C2)C1 [Vindesin sulfate] | – | – | – | – | – | 109 | 5 | –
8 | Nc1ccn([C@@H]2O[C@H](CO)[C@@H](O)[C@@H]2O)c(=O)n1 [Cytarabine] | 4640 | 158 | – | – | – | – | – | –
9 | Vinorelbine bistartrate | – | – | – | – | – | 72 | 2 | –
10 | CC(=O)O[C@H]1C(=O)[C@@]2(C)[C@H]([C@H](OC(=O)c3ccccc3)[C@]3(O)C[C@H](OC(=O)[C@H](O)[C@@H](NC(=O)c4ccccc4)c4ccccc4)C(C)=C1C3(C)C)[C@]1(OC(C)=O)CO[C@@H]1C[C@@H]2O [Paclitaxel] | 441 | 46 | 144 | 117 | 204 | – | – | IC50 (PAXF HPAC; Homo sapiens): 383 nM; IC50 (PAXF CAPAN-2; Homo sapiens): 0.444 µM; IC50 (PAXF 2059): 261 nM; IC50 (PAXF 2005): 0.312 µM
11 | CC[C@]1(O)C[C@H]2CN(CCc3c([nH]c4ccccc34)[C@@](C(=O)OC)(c3cc4c(cc3OC)N(C=O)[C@H]3[C@@](O)(C(=O)OC)[C@H](OC(C)=O)[C@]5(CC)C=CCN6CC[C@]43[C@@H]65)C2)C1 [Vincristine sulfate] | 247 | 3 | 462 | 8 | 300 | – | – | IC50 (PAXF 2005): 0.045 µM
12 | Nc1ccn([C@@H]2O[C@H](CO)[C@@H](O)C2(F)F)c(=O)n1 [Gemcitabine HCl] | 97 | 5220 | 1490 | 158 | 8 | – | – | IC50 (PAXF HPAC; Homo sapiens): 421 nM; IC50 (PAXF CAPAN-2; Homo sapiens): 3.67 µM; IC50 (PAXF 2059): 15 nM; IC50 (PAXF 2005): 0.39 µM
13 | Nc1ccn([C@@H]2O[C@H](CO)[C@@H](O)C2(F)F)c(=O)n1 [gemcitabine] | – | – | – | – | – | – | – | median overall survival [2]: 6.7 months; median overall survival (pancreatic cancer [1]): 5.6 months; median overall survival [3]: 6.8 months; one-year survival (pancreatic cancer [4]): 17%; median overall survival [5]: 8.8 months
14 | CS(=O)(=O)OC[C@H](O)[C@@H](O)COS(C)(=O)=O [Treosulfan] | 48100 | 2020 | – | – | – | – | – | –
15 | Bleomycin sulfate | – | – | – | – | – | 10700 | 149 | –
16 | CN(Cc1cnc2nc(N)nc(N)c2n1)c1ccc(C(=O)N[C@@H](CCC(=O)O)C(=O)O)cc1 [Methotrexate] | 66 | 10000 | – | – | – | – | – | –

Row | Molecule | IC50 (PAXF 546; Homo sapiens, PAXF546) [nM] | IC50 (PAXF PANC-1; Homo sapiens) [nM] | IC50 (PAXF 2035) [nM] | IC50 (PAXF 1998) [nM] | IC50 (PAXF 1986) [nM] | IC50 (PAXF 546) [nM] | IC50 (PAXF PANC-1) [nM] | other results
17 | CCCS(=O)(=O)Nc1ccc(F)c(C(=O)c2c[nH]c3ncc(-c4ccc(Cl)cc4)cc23)c1F [Vemurafenib] | 5330 | 16100 | 11400 | 10800 | 9340 | – | – | IC50 (PAXF 2059): 11400 nM; IC50 (PAXF 2005): 6.75 µM
18 | COc1cccc2c1C(=O)c1c(O)c3c(c(O)c1C2=O)C[C@@](O)(C(=O)CO)C[C@@H]3O[C@H]1C[C@H](N)[C@H](O)[C@H](C)O1 [Doxorubicin HCl] | 134 | 49 | 795 | 1230 | 59 | – | – | IC50 (PAXF 2059): 131 nM; IC50 (PAXF 2005): 0.251 µM
19 | CCN(CC)CCNC(=O)c1c(C)[nH]c(/C=C2\C(=O)Nc3ccc(F)cc32)c1C [Sunitinib malate] | 7380 | 8550 | 2400 | 13200 | 4240 | – | – | IC50 (PAXF 2059): 16500 nM; IC50 (PAXF 2005): 7.09 µM
20 | O=C1[O][Pt]2([NH][C@@H]3CCCC[C@H]3[NH]2)[O]C1=O [Oxaliplatin] | – | – | 99200 | 34600 | 1610 | 1240 | 994 | IC50 (PAXF 2005; PAXF 2005): 12.5 µM
21 | O=C1c2c(O)ccc(O)c2C(=O)c2c(NCCNCCO)ccc(NCCNCCO)c21 [Mitoxantron 2HCl] | – | – | 67 | 240 | 35 | 187 | 10 | IC50 (PAXF 2059): 35 nM; IC50 (PAXF 2005; PAXF 2005): 0.016 µM
22 | CN(Cc1cnc2nc(N)nc(N)c2n1)c1ccc(C(=O)N[C@@H](CCC(=O)O)C(=O)O)cc1 [Methotrexate Hydrat] | – | – | – | 160 | – | 129 | 38 | IC50 (PAXF 2059): 31 nM; IC50 (PAXF 2005; PAXF 2005): 10 µM
23 | Nc1nc2[nH]cc(CCc3ccc(C(=O)N[C@@H](CCC(=O)O)C(=O)O)cc3)c2c(=O)[nH]1 [Pemetrexed, dinatrium] | – | – | – | – | – | 114 | 13000 | –
24 | O=NN(CCCl)C(=O)NCCO [Elmustin] | – | – | – | – | – | 722000 | 375000 | –
25 | C#Cc1cccc(Nc2ncnc3cc(OCCOC)c(OCCOC)cc23)c1 [Erlotinib HCl] | 46100 | 113000 | 83600 | 99100 | 100000 | – | – | IC50 (PAXF 2005): 52.7 µM
26 | FOLFIRINOX | – | – | – | – | – | – | – | median overall survival [3]: 11.1 months
27 | CC(=O)[C@]1(O)Cc2c(O)c3c(c(O)c2[C@@H](O[C@H]2C[C@H](N)[C@H](O)[C@H](C)O2)C1)C(=O)c1ccccc1C3=O [Idarubicin] | 131 | 12 | – | – | – | – | – | –
28 | CC[C@]1(O)C[C@@H]2CN(CCc3c([nH]c4ccccc34)[C@@](C(=O)OC)(c3cc4c(cc3OC)N(C)[C@H]3[C@@](O)(C(=O)OC)[C@H](OC(C)=O)[C@]5(CC)C=CCN6CC[C@]43[C@@H]65)C2)C1 [Vinblastine sulfate] | 71 | 1 | – | – | – | – | – | –
29 | CC(C)C[C@H](NC(=O)[C@H](Cc1ccccc1)NC(=O)c1cnccn1)B(O)O [Bortezomib] | 5 | 18 | – | – | – | – | – | –
30 | N.N.[Cl][Pt][Cl] [Cisplatin] | – | – | 46000 | 75700 | 4830 | 11500 | 7440 | IC50 (PAXF HPAC): 31700 nM; IC50 (PAXF CAPAN-2): 62.1 µM; IC50 (PAXF 2059): 41000 nM; IC50 (PAXF 2005; PAXF 2005): 10.8 µM
31 | N.N.O=C([O-])C1(C(=O)[O-])CCC1.[Pt+2] [Carboplatin] | – | – | – | – | – | 17100 | 15600 | –
